The target of the assay is IDO1 (Homo sapiens, UniProt P14902). Kind of assay: IDO1 Cellular Assay in HeLa Cells Stimulated with IFNγ. Conditions: read-out: HeLa Cell Potency, IC50. Type of assay: cell-based. The protocol:
IDO1 Cellular Assay in HeLa Cells Stimulated with IFNγ
HeLa cells were cultured in complete HeLa culture medium (90% EMEM, 10% heat-inactivated fetal bovine serum) and expanded to about 1×10^9 cells. The cells were then collected and frozen down at 1×10^7 cells/vial in 1 mL frozen medium (90% complete HeLa culture medium, 10% DMSO).
Compounds to be tested were serially diluted in ten 3-fold steps in DMSO starting from 10 mM DMSO stocks in Echo low volume plate(s). Compound dilutions or DMSO alone were then dispensed from the dilution plate(s) into Greiner black 384-well assay plate(s) (catalog #781086, 50 nL/well) using an Echo 550 acoustic liquid handler (Labcyte).
Frozen HeLa cells were thawed and transferred into HeLa assay medium (99% complete HeLa culture medium, 1% Pen/Strep) with 20 mL medium/vial of cells. The cells were spun down at 250 g in a table top centrifuge for 5 min and suspended in same volume of HeLa assay medium. The cells were then counted and adjusted to a density of 2×10^5 cells/mL in HeLa assay medium. Sterile L-tryptophan were added to the cells with final concentration of 300 uM L-tryptophan. A small aliquot (2 mL/plate) of HeLa cells were set aside and were not treated with IFNγ, to serve as the Max-E control.
HeLa cells with and without IFNγ were dispensed to the respective wells of 384-well assay plates containing the compounds. The plates were incubated for about 48 hours at a 37° C., 5% CO2 incubator. Afterwards, 12 μL of 0.5 M methyl isonipecotate in dimethyl sulfoxide were added into each well and the plates were sealed and incubated at 37° C. without CO2 overnight. The plates were centrifuged for 1 min at 200×g. The resulting fluorescence was measured in a Spectramax plate reader (Molecular Devices) with a 400 nm excitation filter and a 510 nm emission filter.
The fluorescence intensity of each well was corrected for the background observed in wells with non-IFNγ-treated cells and was expressed as a fraction of the intensity observed in wells of IFNγ-treated cells and DMSO only. Potencies were calculated by linear least squares fit to the four parameter logistic IC50 equation.
Sequence of IDO1 (P14902 whole entry): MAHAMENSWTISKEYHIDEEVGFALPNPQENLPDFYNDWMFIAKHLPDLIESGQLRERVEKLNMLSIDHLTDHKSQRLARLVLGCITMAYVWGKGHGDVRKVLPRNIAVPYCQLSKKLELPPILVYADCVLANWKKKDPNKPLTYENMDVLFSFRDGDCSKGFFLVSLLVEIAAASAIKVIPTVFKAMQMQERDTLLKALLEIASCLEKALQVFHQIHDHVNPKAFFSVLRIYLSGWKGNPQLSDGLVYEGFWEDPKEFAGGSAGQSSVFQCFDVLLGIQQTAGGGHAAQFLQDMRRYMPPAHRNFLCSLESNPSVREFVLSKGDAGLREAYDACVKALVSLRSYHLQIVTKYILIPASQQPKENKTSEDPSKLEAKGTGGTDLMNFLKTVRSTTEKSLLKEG
By IC50 is commonly meant the concentration needed to halve the response being measured. For “1-(2-(difluoromethyl)-4-(2,3-dimethylphenyl)piperazin-1-yl)-2-((3bR,4aR)-3-(4-hydroxypiperidine-1-carbonyl)-3b,4,4a,5-tetrahydro-1H-cyclopropa[3,4]cyclopenta[1,2-c]pyrazol-1-yl)ethanone [Example 387]”, the IC50 was 205 nM. For the compound `Cc1cccc(N2CCN(C(=O)Cn3nc(C(=O)N4CC[C@H](O)[C@H](F)C4)c4c3CCC4C(F)F)CC2)c1C` (mixture of isomers) [Example 19, 2-[rac-4-(difluoromethyl)-3-[(3R,4S)-3-fluoro-4-hydroxy-piperidine-1-carbonyl]-5,6-dihydro-4H-cyclopenta[c]pyrazol-1-yl]-1-[4-(2,3-dimethylphenyl)piperazin-1-yl]ethanone], the IC50 was determined as 113 nM. Then `Cc1cccc(N2CCN(C(=O)Cn3nc(C(=O)N4CC[C@@H](O)[C@@H](F)C4)c4c3CC(F)C4)CC2)c1C` (mixture of isomers) [Example 417, 1-(4-(2,3-dimethylphenyl)piperazin-1-yl)-2-(5-fluoro-3-((3S,4R)-3-fluoro-4-hydroxypiperidine-1-carbonyl)-5,6-dihydrocyclopenta[c]pyrazol-1(4H)-yl)ethan-1-one], with 27 nM; and `Cc1cccc(N2CCN(C(=O)Cn3nc(C(=O)N4CC[C@@H](O)[C@@H](F)C4)c4c3C(O)CC4)CC2)c1C` (mixture of isomers) [Example 421, 1-(4-(2,3-dimethylphenyl)piperazin-1-yl)-2-(3-((3S,4R)-3-fluoro-4-hydroxypiperidine-1-carbonyl)-6-hydroxy-5,6-dihydrocyclopenta[c]pyrazol-1(4H)-yl)ethanone], with 692 nM. Then `O=C(Cn1nc(C(=O)N2CC[C@H](O)[C@H](F)C2)c2c1CCC2)N1CCN(C2CCc3ccccc32)CC1` (mixture of isomers) [Example 438, 1-(4-(2,3-dihydro-1H-inden-1-yl)piperazin-1-yl)-2-(3-((3R,4S)-3-fluoro-4-hydroxypiperidine-1-carbonyl)-5,6-dihydrocyclopenta[c]pyrazol-1(4H)-yl)ethanone], with 1590 nM. The figure for `Cc1cccc(N2CCN(C(=O)Cn3nc(C(=O)N4CCC(O)CC4)c4c3CCC4C(F)F)CC2)c1C` (racemic) [Example 18, 2-[rac-4-(difluoromethyl)-3-(4-hydroxypiperidine-1-carbonyl)-5,6-dihydro-4H-cyclopenta[c]pyrazol-1-yl]-1-[4-(2,3-dimethylphenyl)piperazin-1-yl]ethanone] is 92.4 nM; for `Cc1cccc(N2CCN(C(=O)Cn3nc(C(=O)N4CC[C@H](F)[C@@H](O)C4)c4c3CCC4)CC2)c1C` (racemic) [Example 208, 1-[4-(2,3-dimethylphenyl)piperazin-1-yl]-2-[3-[rac-(3S,4S)-4-fluoro-3-hydroxy-piperidine-1-carbony]-5,6-dihydro-4H-cyclopenta[c]pyrazol-1-yl]ethanone] it is 30.9 nM; for `Cc1cccc(N2CCN(C(=O)Cn3nc(C(=O)N4CC[C@H](O)[C@H](F)C4)c4c3C[C@H]3C[C@@H]43)[C@H]3CCC[C@@H]32)c1C` (racemic) [Example 327, 1-[rac-(4aS,7aS or 4aR,7aR)-1-(2,3-dimethylphenyl)-3,4a,5,6,7,7a-hexahydro-2H-cyclopenta[b]pyrazin-4-yl]-2-[(2R,4R)-9-[(3R,4S)-3-fluoro-4-hydroxy-piperidine-1-carbonyl]-7,8-diazatricyclo[4.3.0.02,4]nona-1(6),8-dien-7-yl]ethanone] it is 17.1 nM.

With `Cc1cccc(N2CCN(C(=O)Cn3nc(C(=O)N4CC[C@H](O)[C@@H](F)C4)c4c3CC(O)C4)CC2)c1C` (mixture of isomers) [Example 414, 1-(4-(2,3-dimethylphenyl)piperazin-1-yl)-2-(3-((3 S,4S)-3-fluoro-4-hydroxypiperidine-1-carbonyl)-5-hydroxy-5,6-dihydrocyclopenta[c]pyrazol-1 (4H)-yl)ethanone], the IC50 turned out to be 381 nM. Then `Cc1cccc(N2CCN(C(=O)Cn3nc(C(=O)N4CC[C@H](O)[C@H](F)C4)c4c3CC(C(F)F)C4)CC2)c1C` (single isomer, unassigned) [Example 12], with 13.2 nM.

These data come from patent US12264134B2 (Merck Sharp & Dohme LLC, priority 2018, dated 2025).
